In ChEMBL document CHEMBL1141452, “Advances in development of dopaminergic aporphinoids” (J Med Chem, 2007):

biological target: T1, 5-hydroxytryptamine receptor 1A (Rattus norvegicus, UniProt P19327); assay: Displacement of [3H]8-OH-DPAT from rat 5HT1A receptor; conditions: not given
T1 sequence (P19327 whole entry): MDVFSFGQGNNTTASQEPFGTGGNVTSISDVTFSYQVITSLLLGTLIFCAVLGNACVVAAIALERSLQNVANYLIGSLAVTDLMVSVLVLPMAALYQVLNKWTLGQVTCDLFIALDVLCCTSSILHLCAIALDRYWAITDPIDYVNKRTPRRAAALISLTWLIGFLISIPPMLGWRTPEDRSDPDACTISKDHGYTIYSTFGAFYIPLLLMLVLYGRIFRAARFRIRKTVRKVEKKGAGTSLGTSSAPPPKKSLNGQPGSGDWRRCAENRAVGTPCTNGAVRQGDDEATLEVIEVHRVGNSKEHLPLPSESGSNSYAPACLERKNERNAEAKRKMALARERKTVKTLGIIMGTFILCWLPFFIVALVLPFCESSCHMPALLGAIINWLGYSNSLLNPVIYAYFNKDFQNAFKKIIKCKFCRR

Compound	Ki [nM]
CC(=O)N[C@@H]1c2cccc3c2-c2c1ccc1c2[C@@H](C3)N(C)CC1	200
CN1CCc2ccc3c(=O)oc4cccc5c4c3c2[C@H]1C5	2000
C[C@@H]1c2cccc3c2-c2c1ccc1c2[C@@H](C3)N(C)CC1	5.1
CN1CCc2ccc3c4c2[C@@]1(C)Cc1cccc(c1-4)C3	41
Cc1cccc(O)c1-c1cccc2c1-c1cccc3c1[C@@H](C2)N(C)CC3 (stereo in doubt; 60)	49000
CC(=O)N[C@H]1c2cccc3c2-c2c1ccc1c2[C@@H](C3)N(C)CC1	720
C[C@H]1c2cccc3c2-c2c1ccc1c2[C@@H](C3)N(C)CC1	31
CN1CCc2ccc3c4c2[C@H]1Cc1cccc(c1-4)[C@H]3N	140
CN1CCc2ccc3c(=O)[nH]c4cccc5c4c3c2[C@H]1C5	370
CN1CCc2ccc3c4c2[C@H]1Cc1cccc(c1-4)[C@@]3(C)O	310
Cc1cccc(O)c1-c1cccc2c1-c1cccc3c1[C@@H](C2)N(C)CC3 (stereo in doubt; 59)	300000
CO[C@@]1(C)c2cccc3c2-c2c1ccc1c2[C@@H](C3)N(C)CC1	17
CO[C@]1(C)c2cccc3c2-c2c1ccc1c2[C@@H](C3)N(C)CC1	17
CN1CCc2ccc3c4c2[C@H]1Cc1cccc(c1-4)[C@@H]3N	360
CN1CCc2ccc3oc(=O)c4cccc5c4c3c2[C@H]1C5	1150
Cc1cccc(C#N)c1-c1cccc2c1-c1cccc3c1[C@@H](C2)N(C)CC3 (stereo in doubt; 57)	800000

tested on: not listed separately; assay: Inhibition of rat midbrain dopaminergic neuron firing; type: functional; conditions: read-out: ID50 (the source's name)

Compound	ED50 [µmol/kg]
CN1CCc2cccc3c2[C@H]1Cc1ccc(O)c(O)c1-3 [APOMORPHINE]	0.018

biological target: D(1A) dopamine receptor (Rattus norvegicus, UniProt P18901); assay: Displacement of [3H]SCH-23390 from rat dopamine D1 receptor; conditions: not given
Sequence (P18901 whole entry): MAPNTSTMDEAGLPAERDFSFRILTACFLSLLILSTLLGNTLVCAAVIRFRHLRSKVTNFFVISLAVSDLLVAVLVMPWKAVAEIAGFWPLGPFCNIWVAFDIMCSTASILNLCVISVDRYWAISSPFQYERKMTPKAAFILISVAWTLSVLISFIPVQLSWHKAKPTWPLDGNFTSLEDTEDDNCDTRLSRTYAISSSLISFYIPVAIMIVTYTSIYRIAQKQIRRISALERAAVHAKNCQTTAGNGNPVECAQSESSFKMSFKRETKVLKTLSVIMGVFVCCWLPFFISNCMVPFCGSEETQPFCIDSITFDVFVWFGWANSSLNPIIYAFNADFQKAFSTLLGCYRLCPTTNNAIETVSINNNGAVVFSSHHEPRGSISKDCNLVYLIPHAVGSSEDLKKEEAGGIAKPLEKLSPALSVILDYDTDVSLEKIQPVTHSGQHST

Compound	IC50 [nM]	Ki [nM]
COc1c(O)c2c3c(c1OC)CCN(C)C3Cc1ccccc1-2 (stereo not drawn)	17200	
COc1cc2c(cc1OC)-c1c(OC)c(OC)c(I)c3c1[C@H](C2)N(C)CC3		2110
CCN1CCc2cc(OC)cc3c2C1Cc1ccccc1C3 (stereo not drawn)		6600
COc1cc2c(cc1OC)Oc1c(O)ccc3c1[C@H](C2)N(C)CC3 [CULARIDINE]	800	
CCCN1CCc2cc(O)cc3c2C1Cc1ccccc1O3 (stereo not drawn)		> 10000
CCCN1CCc2cc(OC)c(OC)c3c2C1Cc1ccccc1C3 (stereo not drawn)		> 70000
COc1cc2c(cc1OC)-c1c(OC)c(O)cc3c1[C@H](C2)N(C)CC3 [PREDICENTRINE]		240
CCCN1CCc2cc(O)cc3c2C1Cc1ccccc1C3 (stereo not drawn)		30000
COc1cc2c3c(c1OC)Cc1ccccc1CC3N(C)CC2 (stereo not drawn)		7200
O=C1c2ccccc2-c2c3c(cc4ccnc1c24)OCO3 [LIRIODENINE]	75000	
CCCN1CCc2cc(F)cc3c2[C@H]1Cc1cccc(OC=O)c1-3		800
Oc1cc2c3c(c1O)Cc1ccccc1CC3NCC2 (stereo not drawn)		10800
COc1ccc2c(c1O)Oc1c(O)ccc3c1[C@H](C2)N(C)CC3 [CLAVICULINE]	1000	
COc1cccc2c1-c1c3c(cc4c1C(C2)N(C)CC4)OCO3 (stereo not drawn)	> 100000	
COc1cc2c(cc1O)C[C@H]1c3c(ccc(O)c3O2)CCN1C [BREOGANINE]	100	
COc1cc2c(cc1O)C[C@@H]1NCCc3cc(O)c(OC)c-2c31 [NORBOLDINE]	2500	
COc1c2c3c(c4c1OCO4)-c1ccccc1C[C@H]3NCC2 [NORSTEPHALAGINE]	4800	
Cc1ccc2c(c1O)-c1cccc3c1[C@@H](C2)NCC3		> 20000
COc1cc2c3c(c1OC)Cc1ccccc1CC3NCC2 (stereo not drawn)		4300
COc1cc2c(cc1OC)-c1c(OC)c(O)c(Br)c3c1[C@H](C2)N(C)CC3		15
COc1cc2c3c(c1OC)-c1c(ccc(O)c1O)CC3N(C)CC2 (stereo not drawn) [SUAVEOLINE]	63000	

biological target: D(2) dopamine receptor (Rattus norvegicus, UniProt P61169); assay: Displacement of [3H]raclopride from rat dopamine D2 receptor; conditions: not given
Sequence (P61169 whole entry): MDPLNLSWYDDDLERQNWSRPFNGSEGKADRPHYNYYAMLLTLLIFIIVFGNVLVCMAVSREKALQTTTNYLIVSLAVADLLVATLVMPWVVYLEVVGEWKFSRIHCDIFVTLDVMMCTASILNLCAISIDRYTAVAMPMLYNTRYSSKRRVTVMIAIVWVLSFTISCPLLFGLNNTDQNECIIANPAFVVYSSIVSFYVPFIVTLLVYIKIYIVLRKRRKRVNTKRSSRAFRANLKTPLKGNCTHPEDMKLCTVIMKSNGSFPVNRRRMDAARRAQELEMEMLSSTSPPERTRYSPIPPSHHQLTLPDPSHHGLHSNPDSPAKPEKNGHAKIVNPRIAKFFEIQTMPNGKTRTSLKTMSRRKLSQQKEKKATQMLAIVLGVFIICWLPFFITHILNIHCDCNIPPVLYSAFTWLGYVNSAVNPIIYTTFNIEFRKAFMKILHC

Compound	Ki [nM]	IC50 [nM]
CC(=O)N[C@@H]1c2cccc3c2-c2c1ccc1c2[C@@H](C3)N(C)CC1	3600	
COc1c(O)c2c3c(c1OC)CCN(C)C3Cc1ccccc1-2 (stereo not drawn)		2800
COc1cc2c(cc1OC)-c1c(OC)c(OC)c(I)c3c1[C@H](C2)N(C)CC3	4500	
CCN1CCc2cc(OC)cc3c2C1Cc1ccccc1C3 (stereo not drawn)	9700	
CN1CCc2ccc3c(=O)oc4cccc5c4c3c2[C@H]1C5	270	
COc1cc2c(cc1OC)Oc1c(O)ccc3c1[C@H](C2)N(C)CC3 [CULARIDINE]		300
C[C@@H]1c2cccc3c2-c2c1ccc1c2[C@@H](C3)N(C)CC1	19	
CCCN1CCc2cc(O)cc3c2C1Cc1ccccc1O3 (stereo not drawn)	> 10000	
CCCN1CCc2cc(OC)c(OC)c3c2C1Cc1ccccc1C3 (stereo not drawn)	14000	
COc1cc2c(cc1OC)-c1c(OC)c(O)cc3c1[C@H](C2)N(C)CC3 [PREDICENTRINE]	760	
CCCN1CCc2cc(O)cc3c2C1Cc1ccccc1C3 (stereo not drawn)	40000	
COc1cc2c3c(c1OC)Cc1ccccc1CC3N(C)CC2 (stereo not drawn)	> 20000	
O=C1c2ccccc2-c2c3c(cc4ccnc1c24)OCO3 [LIRIODENINE]		59000
CCCN1CCc2cc(F)cc3c2[C@H]1Cc1cccc(OC=O)c1-3	39	
Oc1cc2c3c(c1O)Cc1ccccc1CC3NCC2 (stereo not drawn)	8000	
COc1ccc2c(c1O)Oc1c(O)ccc3c1[C@H](C2)N(C)CC3 [CLAVICULINE]		1500
CN1CCc2ccc3c4c2[C@@]1(C)Cc1cccc(c1-4)C3	83	
COc1cccc2c1-c1c3c(cc4c1C(C2)N(C)CC4)OCO3 (stereo not drawn)		> 100000

Compound	Ki [nM]	IC50 [nM]
COc1cc2c(cc1O)C[C@H]1c3c(ccc(O)c3O2)CCN1C [BREOGANINE]		200
COc1cc2c(cc1O)C[C@@H]1NCCc3cc(O)c(OC)c-2c31 [NORBOLDINE]		6800
COc1c2c3c(c4c1OCO4)-c1ccccc1C[C@H]3NCC2 [NORSTEPHALAGINE]		27000
Cc1ccc2c(c1O)-c1cccc3c1[C@@H](C2)NCC3	> 10000	
Cc1cccc(O)c1-c1cccc2c1-c1cccc3c1[C@@H](C2)N(C)CC3 (stereo in doubt; 60)	> 100000	
CC(=O)N[C@H]1c2cccc3c2-c2c1ccc1c2[C@@H](C3)N(C)CC1	8000	
COc1cc2c3c(c1OC)Cc1ccccc1CC3NCC2 (stereo not drawn)	13000	
COc1cc2c(cc1OC)-c1c(OC)c(O)c(Br)c3c1[C@H](C2)N(C)CC3	610	
C[C@H]1c2cccc3c2-c2c1ccc1c2[C@@H](C3)N(C)CC1	39	
CN1CCc2ccc3c4c2[C@H]1Cc1cccc(c1-4)[C@H]3N	260	
CN1CCc2ccc3c(=O)[nH]c4cccc5c4c3c2[C@H]1C5	6100	
CN1CCc2ccc3c4c2[C@H]1Cc1cccc(c1-4)[C@@]3(C)O	180	
Cc1cccc(O)c1-c1cccc2c1-c1cccc3c1[C@@H](C2)N(C)CC3 (stereo in doubt; 59)	> 100000	
CO[C@@]1(C)c2cccc3c2-c2c1ccc1c2[C@@H](C3)N(C)CC1	71	
CO[C@]1(C)c2cccc3c2-c2c1ccc1c2[C@@H](C3)N(C)CC1	7	
CN1CCc2ccc3oc(=O)c4cccc5c4c3c2[C@H]1C5	540	
Cc1cccc(C#N)c1-c1cccc2c1-c1cccc3c1[C@@H](C2)N(C)CC3 (stereo in doubt; 57)	2500	

biological target: Sodium-dependent dopamine transporter (Rattus norvegicus, UniProt P23977); assay: Displacement of [3H]DA from rat DAT; conditions: not given
Sequence (P23977 whole entry): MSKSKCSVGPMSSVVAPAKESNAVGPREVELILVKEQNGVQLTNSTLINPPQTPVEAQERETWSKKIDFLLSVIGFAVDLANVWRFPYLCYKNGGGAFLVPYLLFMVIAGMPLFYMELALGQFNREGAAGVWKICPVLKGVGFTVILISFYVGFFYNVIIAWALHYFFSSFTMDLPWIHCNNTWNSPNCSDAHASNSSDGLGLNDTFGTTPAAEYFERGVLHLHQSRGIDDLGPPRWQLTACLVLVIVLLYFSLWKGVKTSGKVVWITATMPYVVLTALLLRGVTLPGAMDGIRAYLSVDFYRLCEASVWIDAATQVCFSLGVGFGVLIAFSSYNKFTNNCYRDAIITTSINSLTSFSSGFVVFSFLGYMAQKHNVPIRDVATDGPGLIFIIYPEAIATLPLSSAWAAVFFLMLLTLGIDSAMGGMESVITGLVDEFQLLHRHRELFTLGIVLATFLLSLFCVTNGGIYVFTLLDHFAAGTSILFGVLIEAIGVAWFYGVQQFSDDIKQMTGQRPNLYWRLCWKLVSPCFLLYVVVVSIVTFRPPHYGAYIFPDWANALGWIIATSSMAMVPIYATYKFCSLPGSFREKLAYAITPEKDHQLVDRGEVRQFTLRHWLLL

Compound	IC50 [nM]
COc1c(O)c2c3c(c1OC)CCN(C)C3Cc1ccccc1-2 (stereo not drawn)	40000
COc1ccc2c(c1O)Oc1c(O)ccc3c1[C@H](C2)N(C)CC3 [CLAVICULINE]	> 100000
COc1cccc2c1-c1c3c(cc4c1C(C2)N(C)CC4)OCO3 (stereo not drawn)	32000
COc1cc2c3c(c1OC)-c1c(ccc(O)c1O)CC3N(C)CC2 (stereo not drawn) [SUAVEOLINE]	> 100000

biological target: 5-hydroxytryptamine receptor 7 (Rattus norvegicus) (UniProt P32305); assay: Displacement of [3H]5-HT from rat 5-HT7 receptor; conditions: not given
Sequence (P32305 whole entry, looked up): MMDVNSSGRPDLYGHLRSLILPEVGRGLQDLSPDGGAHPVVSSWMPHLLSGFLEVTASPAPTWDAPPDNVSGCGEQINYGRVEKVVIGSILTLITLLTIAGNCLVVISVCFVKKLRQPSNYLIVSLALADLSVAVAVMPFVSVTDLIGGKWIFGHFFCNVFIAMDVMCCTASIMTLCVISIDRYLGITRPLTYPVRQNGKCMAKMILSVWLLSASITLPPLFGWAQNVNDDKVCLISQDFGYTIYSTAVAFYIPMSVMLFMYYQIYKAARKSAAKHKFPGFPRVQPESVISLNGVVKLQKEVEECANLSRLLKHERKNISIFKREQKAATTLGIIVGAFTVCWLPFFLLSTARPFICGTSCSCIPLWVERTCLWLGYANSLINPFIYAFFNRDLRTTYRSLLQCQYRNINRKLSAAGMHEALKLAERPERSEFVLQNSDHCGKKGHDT

Compound	Ki [nM]
CC(=O)N[C@@H]1c2cccc3c2-c2c1ccc1c2[C@@H](C3)N(C)CC1	540
CN1CCc2ccc3c(=O)oc4cccc5c4c3c2[C@H]1C5	1500
C[C@@H]1c2cccc3c2-c2c1ccc1c2[C@@H](C3)N(C)CC1	3.3
CN1CCc2ccc3c4c2[C@@]1(C)Cc1cccc(c1-4)C3	7
Cc1cccc(O)c1-c1cccc2c1-c1cccc3c1[C@@H](C2)N(C)CC3 (stereo in doubt; 60)	23
CC(=O)N[C@H]1c2cccc3c2-c2c1ccc1c2[C@@H](C3)N(C)CC1	1320
C[C@H]1c2cccc3c2-c2c1ccc1c2[C@@H](C3)N(C)CC1	6
CN1CCc2ccc3c4c2[C@H]1Cc1cccc(c1-4)[C@H]3N	13
CN1CCc2ccc3c(=O)[nH]c4cccc5c4c3c2[C@H]1C5	340
CN1CCc2ccc3c4c2[C@H]1Cc1cccc(c1-4)[C@@]3(C)O	28
Cc1cccc(O)c1-c1cccc2c1-c1cccc3c1[C@@H](C2)N(C)CC3 (stereo in doubt; 59)	4.3
CO[C@@]1(C)c2cccc3c2-c2c1ccc1c2[C@@H](C3)N(C)CC1	1.1
CO[C@]1(C)c2cccc3c2-c2c1ccc1c2[C@@H](C3)N(C)CC1	1.1
CN1CCc2ccc3c4c2[C@H]1Cc1cccc(c1-4)[C@@H]3N	18
CN1CCc2ccc3oc(=O)c4cccc5c4c3c2[C@H]1C5	280
Cc1cccc(C#N)c1-c1cccc2c1-c1cccc3c1[C@@H](C2)N(C)CC3 (stereo in doubt; 57)	21
